Entries after “also recorded” stand apart in the source; their conditions may differ.
Experiments:
psoriasis = details: Phase III psoriasis study, topical formulation; not statistically significant; cited from earlier work
[1] = Blood plasma levels of hydroxyproline in trout fed 90 days; type: in vivo; details: for blood plasma levels of Hydroxyproline: trout fed for 90 days, FIG. 2
Description: (§1) Trout were fed fish hydrolysate and fractions thereof to identify bioactive compounds (see Table 2).
The y axis is plasma levels in micromoles per 100 ml and the x-axis is the dietary level of component in g per kg diet.

[2] = test system: Atlantic salmon (Salmo salar); assay: 88 days growth experiment, growth and feed performance; type: in vivo; details: 88 days feeding
Description: The diets used were composed such that they are equal in protein, lipid and energy, and designed to vary only in level of Hydroxyproline. The small amounts of Hydroxyproline added (L-4-Hydroksyproline, >99.0% pure, Fluka BioChemika. Sigma-Aldrich Chemie GmbH) were exchanged with fish meal, and the diets were otherwise adjusted with the content of raw wheat to secure equal chemical composition. Five different levels of Hydroxyproline were used in a regression design with two replicates for each level, except the diet without Hydroxyproline addition that was run in triplicate tanks. The levels used of hydroxyproline were 0, 0.7 gkg^−1, 1.4 gkg^−1, 2.8 gkg^−1 and 5.6 gkg^−1. As a negative control, Proline (L-Proline, (Hydroxy-L-Proline Free) Sigma grade, Sigma Chemical Company) was added to a level of 2.8 gkg^−1.
Atlantic salmon (Salmo salar) was obtained from Salmobreed May 2006. The fish was prevaccinated with Trippel Forte and was acclimated for 56 days before the trial started. The fish was given EWOS Opal Boost 50 3A, 3 mm pellets during this period. The fish was randomly distributed among 14 fiberglass tanks (1.5×1.5×1 m^3) with 80 fish per tank. Diet 1 and Diet 6 were run in triplicate tanks. Diet 2, Diet 3, Diet 4 and Diet 5 was run in duplicate tanks. Data are given also for a fish meal diet with no plant protein included. This diet was run simultaneously with fish of the same size, origin and treatment. This diet (Diet 7) was run in 2 m×2 m×1 m tanks in triplicate in a parallel experiment. The tanks were supplied with 75 I min^−1 of seawater taken from a depth of 50 m with average salinity of 3.2-3.3%. Water temperature was kept constant at 10.4±0.4° C. during the acclimatization and the experimental period, using a heat exchanger to adjust the sea water temperature. Throughout the experimental period of 88 days, the fish were exposed to 24 h artificial light. Great care was taken to reduce disturbance from the environment. Automatic feeders were used to add feed from 05.00 to 08.00 hrs and from 14.00 to 03.00 hrs. The level of feeding was regulated in such a way that offered feed was 110% of expected consumption based on daily monitoring of wasted feed. Uneaten feed was continuously removed by automatic collection and separated from feces using an Excess Fishfeed Collector (Holland Teknologi, Norway). Feed intake was measured daily as the difference between total feed given and total uneaten feed collected. Feed intake for the total experimental period was measured as the sum of the daily feed intakes, divided by feeding days and average fish weight during the experimental period; (start weight+final weight)/2. Feeding was sustained until the fish was sampled for analyses.
The six experimental diets were randomly assigned to the 14 tanks, with 3 replicate tanks for Diet 1 and Diet 6 and to duplicate tanks for the other experimental diets. Initial fish weights and lengths were recorded. Twenty fish representing the weight ranges were sampled, killed by a blow on the head, frozen and kept at −80° C. pending analyses of fish at start. Final weights were determined for each fish in all tanks. At the end of the feeding period, the fish were anaesthetized with Eugonol (iso-eugunol was diluted 1:1 with ethanol and the diluted solution was added 15 ml per m^3 water in the tanks). After about 15 min, 10 fish from each tank were sampled, killed by a blow in the head, gutted and weight of slaughtered fish, liver and viscera were noted. Five other fish from each tank were pooled and frozen for pending analyses.
The 88 days growth experiment was run successfully with a thermal growth coefficient (TGC) of 2.5 for the fish meal control diet. Some loss of fish occurred during the experimental period and some fish seemed not to develop normally. […]

[3] = test system: Atlantic salmon (Salmo salar); assay: Subjective scoring of wounds on skin, damage on dorsal fin and loss of shells; type: in vivo; details: scale from 0 (no damage) to 5 (severe damages), 88 days feeding, Diets 2-5 = 0.7, 1.4, 2.8, 5.6 gkg−1 added hydroxyproline, mean ± SD
Description: Wounds on skin, damages on dorsal fin and loss of shells were evaluated in the 10 salmons from each tank. The measure was subjectively based on a scale from 0 (no damage) to 5 (severe damages). The data and statistics are included in the table below (based on 110 measures) and shown in the figure based on average values for each tank). The statistics given are based on linear regression. […] (Table 3 and FIGS. 5, 6 and 7)

[4] = Retention of dietary hydroxyproline in fish; type: in vivo; details: FIG. 1
Description: as §1
The experiments where fish were fed a diet including varying levels of hydroxyproline were performed as described above.
The retention of hydroxyproline is statistically correlated to the dietary level. Low dietary levels (0.8 g per kg diet) give retention of close to 100% while higher dietary levels (>4.5 g per kg diet) gives retention of 20-30%.

[5] = added hydroxyproline gkg−1: Diet 2 0.7, Diet 3 1.4, Diet 4 2.8, Diet 5 5.6, mean ± SD
[6] = at 2.9 gkg−1 added Hydroxyproline

Structure (SMILES)	greater improvement in mean lesion scores in the treated group compared to placebos (psoriasis)	dietary level above which the negative effects are eliminated ([1]; from retention, plasma and tissue data)	blood plasma levels of Hydroxyproline ([1]; dietary level 0.8 g per kg)	blood plasma levels of Hydroxyproline ([1]; dietary levels >4 g per kg)	nutritional requirement indicated by the growth curve [2]	Body weight at end, g [2, 5]	Weight gain, g/fish [2, 5]	increase of weight gain compared with no Hydroxyproline added (Diet 1) [2, 6]	weight gain at the maximum of the regression equation [2, 6]	added Hydroxyproline at maximum of the weight gain regression equation ([2]; polynomial regression, n=11)	SGR ([2]; specific growth rate, Diets 2-5 = 0.7, 1.4, 2.8, 5.6 gkg−1 added hydroxyproline, mean ± SD)	TGC ([2]; thermal growth coefficient, Diets 2-5 = 0.7, 1.4, 2.8, 5.6 gkg−1 added hydroxyproline, mean ± SD)	Damage on dorsal fin [3]	Loss of shells [3]	Wounds on skin [3]	retention of Hydroxyproline in the fish ([4]; higher dietary levels (>4.5 g per kg diet))	retention of Hydroxyproline in the fish ([4]; low dietary levels (0.8 g per kg diet))
Nc1nc2c(Cc3cccnc3)c[nH]c2c(=O)[nH]1 [BCX-34]	14%																
O=C(O)[C@@H]1C[C@@H](O)CN1 [Hydroxyproline, L-4-Hydroksyproline]		3-4 g per kg diet	much lower than previously known (normal values); also recorded: much lower than earlier published (normal values)	very high plasma levels	2.5-3 g per kg diet	growth promoting effect	growth promoting effect	14.0%	155 g	2.9 gkg−1	growth promoting effect	growth promoting effect	lesser degree of damage to the dorsal fin	lower levels of fish scale loss	lesser degree of wounding	20-30%	~100%

Source: US20120004157A1, “HYDROXYPROLINE COMPOSITIONS AND USES THEREOF” (Bergen Teknologioverforing AS, priority 2007, published 2012)
